Like-named read-outs stand apart in the source and are kept apart here.
Experiments:
Assay in all cases: Test B pre-/postemergence plant response
Format in all cases: in vivo
[1] = test system: lambsquarters (Chenopodium album); settings: for pest or weed control at 31 g/ha: 31 g ai/ha; for pest or weed control at 62 g/ha: 62 g ai/ha; for pest or weed control at 125 g/ha: 125 g ai/ha
Source text: (§1) Seeds of plant species selected from blackgrass (Alopecurus myosuroides), downy bromegrass (Bromus tectorum), green foxtail (Setaria viridis), Italian ryegrass (Lolium multiflorum), wheat (Triticum aestivum), wild oat (Avena fatua), deadnettle (henbit deadnettle, Lamium amplexicaule), galium (catchweed bedstraw, Galium aparine), bermudagrass (Cynodon dactylon), Surinam grass (Brachiaria decumbens), cocklebur (Xanthium strumarium), corn (Zea mays), large crabgrass (Digitaria sanguinalis), woolly cupgrass (Eriochloa villosa), giant foxtail (Setaria faberii), goosegrass (Eleusine indica), johnsongrass (Sorghum halepense), kochia (Kochia scoparia), lambsquarters (Chenopodium album), morningglory (Ipomoea coccinea), nightshade (eastern black nightshade, Solanum ptycanthum), yellow nutsedge (Cyperus esculentus), pigweed (Amaranthus retroflexus), ragweed (common ragweed, Ambrosia elatior), Russian thistle (Salsola kali), soybean (Glycine max), sunflower (common oilseed sunflower, Helianthus annuus) and velvetleaf (Abutilon theophrasti) were planted into a blend of loam soil and sand and treated preemergence with test compounds formulated in a non-phytotoxic solvent mixture which included a surfactant.
(§2) At the same time, plants selected from these crop and weed species and also winter barley (Hordeum vulgare), canarygrass (Phalaris minor), chickweed (Stellaria media) and windgrass (Apera spica-venti) were planted in pots containing Redi-Earth® planting medium (Scotts Company, 14111 Scottslawn Road, Marysville, Ohio 43041) comprising spaghnum peat moss, vermiculite, wetting agent and starter nutrients and treated with postemergence applications of some of the test chemicals formulated in the same manner. Plants ranged in height from 2 to 18 cm (1- to 4-leaf stage) for postemergence treatments.
(§3) Treated plants and controls were maintained in a greenhouse for 13 to 15 days, after which time all treated plants were visually evaluated and compared to controls. Plant response ratings, summarized in Table B, are based on a scale of 0 to 100 where 0 is no effect and 100 is complete control. A dash (-) response means no test result.

soybean (Glycine max) = settings: for plant injury at 31 g/ha: 31 g ai/ha; for plant injury at 62 g/ha: 62 g ai/ha; for plant injury at 125 g/ha: 125 g ai/ha
Source text: as §1, §2, §3

corn (Zea mays) = settings: for Corn plant response rating (crop injury, 0 = no effect, 100 = complete kill) at 31 g/ha: 31 g ai/ha; for Corn plant response rating (crop injury, 0 = no effect, 100 = complete kill) at 62 g/ha: 62 g ai/ha; for Corn plant response rating (crop injury, 0 = no effect, 100 = complete kill) at 125 g/ha: 125 g ai/ha
Source text: as §1, §2, §3

[2] = test system: goosegrass (Eleusine indica); settings: for pest or weed control at 31 g/ha: 31 g ai/ha; for pest or weed control at 62 g/ha: 62 g ai/ha; for pest or weed control at 125 g/ha: 125 g ai/ha
Source text: as §1, §2, §3

[3] = test system: velvetleaf (Abutilon theophrasti); settings: for pest or weed control at 31 g/ha: 31 g ai/ha; for pest or weed control at 62 g/ha: 62 g ai/ha; for pest or weed control at 125 g/ha: 125 g ai/ha
Source text: as §1, §2, §3

[4] = test system: johnsongrass (Sorghum halepense); settings: for pest or weed control at 31 g/ha: 31 g ai/ha; for pest or weed control at 62 g/ha: 62 g ai/ha; for pest or weed control at 125 g/ha: 125 g ai/ha
Source text: as §1, §2, §3

[5] = Chenopodium album, pre-emergence, Preemergence, scale 0 to 100 (0 no effect, 100 complete control), read-out: Plant response rating, Lambsquarters
[6] = Preemergence, 250 g ai/ha, 0 to 100 scale
[7] = Glycine max, pre-emergence, Preemergence, scale 0 to 100 (0 no effect, 100 complete control), read-out: Plant response rating, Soybean
[8] = Zea mays, pre-emergence, Preemergence, scale 0 to 100 (0 no effect, 100 complete control)
[9] = Eleusine indica, pre-emergence, Preemergence, scale 0 to 100 (0 no effect, 100 complete control), read-out: Plant response rating, Goosegrass
[10] = Abutilon theophrasti, pre-emergence, 360 h, Preemergence, scale 0 to 100 (0 no effect, 100 complete control), read-out: Plant response rating, Velvetleaf
[11] = Sorghum halepense, pre-emergence, Preemergence, scale 0 to 100 (0 no effect, 100 complete control), read-out: Plant response rating, Johnsongrass

`COCCn1c(-c2cc(F)cc(F)c2)ncc(C(=O)C2=C(O)C3CCC(C3)C2=O)c1=O` (stereo not drawn) [Compound 243, 2-(3,5-difluorophenyl)-5-[(2-hydroxy-4-oxobicyclo[3.2.1]oct-2-en-3-yl)carbonyl]-3-(2-methoxyethyl)-4(3H)-pyrimidinone] showed a pest or weed control at 31 g/ha ([1]; Chenopodium album, post-emergence, Postemergence, 0 to 100 scale (0 no effect, 100 complete control), read-out: Plant response rating, Lambsquarters) of 100%, a pest or weed control at 62 g/ha ([1]; Chenopodium album, post-emergence, Postemergence, scale 0 to 100 (0 no effect, 100 complete control), read-out: Plant response rating, Lambsquarters) of 100% and a pest or weed control at 125 g/ha ([1]; Chenopodium album, post-emergence, Postemergence, scale 0 (no effect) to 100 (complete control), 13 to 15 days, read-out: Plant response rating, Lambsquarters) of 100%. It also gave a pest or weed control at 250 g/ha ([1]; Chenopodium album, post-emergence, Postemergence, 250 g ai/ha, scale 0 to 100 (0 no effect, 100 complete control), 13 to 15 days, read-out: Plant response rating, Lambsquarters) of 100%, a pest or weed control at 31 g/ha [1, 5] of 100% and a pest or weed control at 62 g/ha [1, 5] of 100%. The pest or weed control at 125 g/ha ([1]; Chenopodium album, pre-emergence, Preemergence, scale 0 to 100, 0 no effect, 100 complete control, read-out: Plant response rating, Lambsquarters) was 100%, the “Lambsquarters plant response rating” value [1, 6] was 100 and the plant injury at 31 g/ha (soybean (Glycine max); Glycine max, post-emergence, Postemergence, 0 to 100 scale (0 no effect, 100 complete control), read-out: Plant response rating, Soybean) was 95%. The plant injury at 62 g/ha (soybean (Glycine max); Glycine max, post-emergence, Postemergence, scale 0 to 100 (0 no effect, 100 complete control), read-out: Plant response rating, Soybean) was 98%, the plant injury at 125 g/ha (soybean (Glycine max); Glycine max, post-emergence, Postemergence, scale 0 (no effect) to 100 (complete control), 13 to 15 days, read-out: Plant response rating, Soybean) was 100% and the plant injury at 250 g/ha (soybean (Glycine max); Glycine max, post-emergence, Postemergence, 250 g ai/ha, scale 0 to 100 (0 no effect, 100 complete control), 13 to 15 days, read-out: Plant response rating, Soybean) was 100%. It also gave a plant injury at 31 g/ha (soybean (Glycine max); [7]) of 65%, a plant injury at 62 g/ha (soybean (Glycine max); [7]) of 75% and a plant injury at 125 g/ha (soybean (Glycine max); Glycine max, pre-emergence, Preemergence, scale 0 to 100, 0 no effect, 100 complete control, read-out: Plant response rating, Soybean) of 85%. For the same compound, the “Soybean plant response rating” value (soybean (Glycine max); [6]) was 95, the “Corn plant response rating” value (corn (Zea mays); [6]) was 95 and the Corn plant response rating (crop injury, 0 = no effect, 100 = complete kill) at 31 g/ha (corn (Zea mays); Zea mays, post-emergence, Postemergence, 0 to 100 scale (0 no effect, 100 complete control)) was 90%. For the same compound, the Corn plant response rating (crop injury, 0 = no effect, 100 = complete kill) at 62 g/ha (corn (Zea mays); Zea mays, post-emergence, Postemergence, scale 0 to 100 (0 no effect, 100 complete control)) was 95%, the Corn plant response rating (crop injury, 0 = no effect, 100 = complete kill) at 125 g/ha (corn (Zea mays); Zea mays, post-emergence, Postemergence, scale 0 (no effect) to 100 (complete control), 13 to 15 days) was 100% and the Corn plant response rating (crop injury, 0 = no effect, 100 = complete kill) at 250 g/ha (corn (Zea mays); Zea mays, post-emergence, Postemergence, 250 g ai/ha, scale 0 to 100 (0 no effect, 100 complete control), 13 to 15 days) was 100%. It also gave a Corn plant response rating (crop injury, 0 = no effect, 100 = complete kill) at 31 g/ha (corn (Zea mays); [8]) of 65%, a Corn plant response rating (crop injury, 0 = no effect, 100 = complete kill) at 62 g/ha (corn (Zea mays); [8]) of 75% and a Corn plant response rating (crop injury, 0 = no effect, 100 = complete kill) at 125 g/ha (corn (Zea mays); Zea mays, pre-emergence, Preemergence, scale 0 to 100, 0 no effect, 100 complete control) of 85%. For the same compound, the pest or weed control at 31 g/ha ([2]; Eleusine indica, post-emergence, Postemergence, 0 to 100 scale (0 no effect, 100 complete control), read-out: Plant response rating, Goosegrass) was 95%, the pest or weed control at 62 g/ha ([2]; Eleusine indica, post-emergence, Postemergence, scale 0 to 100 (0 no effect, 100 complete control), read-out: Plant response rating, Goosegrass) was 95% and the pest or weed control at 125 g/ha ([2]; Eleusine indica, post-emergence, Postemergence, scale 0 (no effect) to 100 (complete control), 13 to 15 days, read-out: Plant response rating, Goosegrass) was 98%. For the same compound, the pest or weed control at 250 g/ha ([2]; Eleusine indica, post-emergence, Postemergence, 250 g ai/ha, scale 0 to 100 (0 no effect, 100 complete control), 13 to 15 days, read-out: Plant response rating, Goosegrass) was 98%, the pest or weed control at 31 g/ha [2, 9] was 98% and the pest or weed control at 62 g/ha [2, 9] was 100%. The pest or weed control at 125 g/ha ([2]; Eleusine indica, pre-emergence, Preemergence, scale 0 to 100, 0 no effect, 100 complete control, read-out: Plant response rating, Goosegrass) was 100%, the “Goosegrass plant response rating” value [2, 6] was 100 and the pest or weed control at 31 g/ha ([3]; Abutilon theophrasti, post-emergence, 360 h, Postemergence, 0 to 100 scale (0 no effect, 100 complete control), read-out: Plant response rating, Velvetleaf) was 100%. The pest or weed control at 62 g/ha ([3]; Abutilon theophrasti, post-emergence, 360 h, Postemergence, scale 0 to 100 (0 no effect, 100 complete control), read-out: Plant response rating, Velvetleaf) was 100%, the pest or weed control at 125 g/ha ([3]; Abutilon theophrasti, post-emergence, 360 h, Postemergence, scale 0 (no effect) to 100 (complete control), 13 to 15 days, read-out: Plant response rating, Velvetleaf) was 100% and the pest or weed control at 250 g/ha ([3]; Abutilon theophrasti, post-emergence, 360 h, Postemergence, 250 g ai/ha, scale 0 to 100 (0 no effect, 100 complete control), 13 to 15 days, read-out: Plant response rating, Velvetleaf) was 100%. It also gave a pest or weed control at 31 g/ha [3, 10] of 100%, a pest or weed control at 62 g/ha [3, 10] of 100% and a pest or weed control at 125 g/ha ([3]; Abutilon theophrasti, pre-emergence, 360 h, Preemergence, scale 0 to 100, 0 no effect, 100 complete control, read-out: Plant response rating, Velvetleaf) of 100%. The “Velvetleaf plant response rating” value [3, 6] was 100, the “Johnsongrass plant response rating” value [4, 6] was 100 and the pest or weed control at 31 g/ha ([4]; Sorghum halepense, post-emergence, Postemergence, 0 to 100 scale (0 no effect, 100 complete control), read-out: Plant response rating, Johnsongrass) was 100%. For the same compound, the pest or weed control at 62 g/ha ([4]; Sorghum halepense, post-emergence, Postemergence, scale 0 to 100 (0 no effect, 100 complete control), read-out: Plant response rating, Johnsongrass) was 100%, the pest or weed control at 125 g/ha ([4]; Sorghum halepense, post-emergence, Postemergence, scale 0 (no effect) to 100 (complete control), 13 to 15 days, read-out: Plant response rating, Johnsongrass) was 100% and the pest or weed control at 250 g/ha ([4]; Sorghum halepense, post-emergence, Postemergence, 250 g ai/ha, scale 0 to 100 (0 no effect, 100 complete control), 13 to 15 days, read-out: Plant response rating, Johnsongrass) was 100%. The pest or weed control at 31 g/ha [4, 11] was 70%, the pest or weed control at 62 g/ha [4, 11] was 95% and the pest or weed control at 125 g/ha ([4]; Sorghum halepense, pre-emergence, Preemergence, scale 0 to 100, 0 no effect, 100 complete control, read-out: Plant response rating, Johnsongrass) was 95%.

Source: US8952024B2, “Herbicidal pyrimidone derivatives” (E I du Pont de Nemours and Company, priority 2009, dated 2015)
